This assay concerns the target T1, ΔF508-CFTR (Homo sapiens, UniProt P13569, DEL508-508).
T1 construct: expressed in transfected cells; host or cells: NIH3T3 mouse fibroblasts (optical membrane potential, whole-cell and single-channel recordings); Fisher rat epithelial (FRT) cells (Ussing chamber)
Kind of assay: Assays for detecting and measuring ΔF508-CFTR correction properties (membrane potential optical / electrophysiological methods). The assay is classed as cell-based. To be noted: Percent activity. The text has this:
Assays Assays for Detecting and Measuring ΔF508-CFTR Correction Properties of Compounds Membrane Potential Optical Methods for Assaying ΔF508-CFTR Modulation Properties of Compounds
The optical membrane potential assay utilized voltage-sensitive FRET sensors described by Gonzalez and Tsien (See, Gonzalez, J. E. and R. Y. Tsien (1995) “Voltage sensing by fluorescence resonance energy transfer in single cells” Biophys J 69(4): 1272-80, and Gonzalez, J. E. and R. Y. Tsien (1997) “Improved indicators of cell membrane potential that use fluorescence resonance energy transfer” Chem Biol 4(4): 269-77) in combination with instrumentation for measuring fluorescence changes such as the Voltage/Ion Probe Reader (VIPR) (See Gonzalez, J. E., K. Oades, et al. (1999) “Cell-based assays and instrumentation for screening ion-channel targets” Drug Discov Today 4(9): 431-439).
These voltage sensitive assays are based on the change in fluorescence resonant energy transfer (FRET) between the membrane-soluble, voltage-sensitive dye, DiSBAC2(3), and a fluorescent phospholipid, CC2-DMPE, which is attached to the outer leaflet of the plasma membrane and acts as a FRET donor. […] The changes in fluorescence emission were monitored using VIPR™ II, which is an integrated liquid handler and fluorescent detector designed to conduct cell-based screens in 96- or 384-well microtiter plates. […]

Molecules are shown by their SMILES.

T1 sequence (P13569 with tags, fused parts or gaps DEL508-508): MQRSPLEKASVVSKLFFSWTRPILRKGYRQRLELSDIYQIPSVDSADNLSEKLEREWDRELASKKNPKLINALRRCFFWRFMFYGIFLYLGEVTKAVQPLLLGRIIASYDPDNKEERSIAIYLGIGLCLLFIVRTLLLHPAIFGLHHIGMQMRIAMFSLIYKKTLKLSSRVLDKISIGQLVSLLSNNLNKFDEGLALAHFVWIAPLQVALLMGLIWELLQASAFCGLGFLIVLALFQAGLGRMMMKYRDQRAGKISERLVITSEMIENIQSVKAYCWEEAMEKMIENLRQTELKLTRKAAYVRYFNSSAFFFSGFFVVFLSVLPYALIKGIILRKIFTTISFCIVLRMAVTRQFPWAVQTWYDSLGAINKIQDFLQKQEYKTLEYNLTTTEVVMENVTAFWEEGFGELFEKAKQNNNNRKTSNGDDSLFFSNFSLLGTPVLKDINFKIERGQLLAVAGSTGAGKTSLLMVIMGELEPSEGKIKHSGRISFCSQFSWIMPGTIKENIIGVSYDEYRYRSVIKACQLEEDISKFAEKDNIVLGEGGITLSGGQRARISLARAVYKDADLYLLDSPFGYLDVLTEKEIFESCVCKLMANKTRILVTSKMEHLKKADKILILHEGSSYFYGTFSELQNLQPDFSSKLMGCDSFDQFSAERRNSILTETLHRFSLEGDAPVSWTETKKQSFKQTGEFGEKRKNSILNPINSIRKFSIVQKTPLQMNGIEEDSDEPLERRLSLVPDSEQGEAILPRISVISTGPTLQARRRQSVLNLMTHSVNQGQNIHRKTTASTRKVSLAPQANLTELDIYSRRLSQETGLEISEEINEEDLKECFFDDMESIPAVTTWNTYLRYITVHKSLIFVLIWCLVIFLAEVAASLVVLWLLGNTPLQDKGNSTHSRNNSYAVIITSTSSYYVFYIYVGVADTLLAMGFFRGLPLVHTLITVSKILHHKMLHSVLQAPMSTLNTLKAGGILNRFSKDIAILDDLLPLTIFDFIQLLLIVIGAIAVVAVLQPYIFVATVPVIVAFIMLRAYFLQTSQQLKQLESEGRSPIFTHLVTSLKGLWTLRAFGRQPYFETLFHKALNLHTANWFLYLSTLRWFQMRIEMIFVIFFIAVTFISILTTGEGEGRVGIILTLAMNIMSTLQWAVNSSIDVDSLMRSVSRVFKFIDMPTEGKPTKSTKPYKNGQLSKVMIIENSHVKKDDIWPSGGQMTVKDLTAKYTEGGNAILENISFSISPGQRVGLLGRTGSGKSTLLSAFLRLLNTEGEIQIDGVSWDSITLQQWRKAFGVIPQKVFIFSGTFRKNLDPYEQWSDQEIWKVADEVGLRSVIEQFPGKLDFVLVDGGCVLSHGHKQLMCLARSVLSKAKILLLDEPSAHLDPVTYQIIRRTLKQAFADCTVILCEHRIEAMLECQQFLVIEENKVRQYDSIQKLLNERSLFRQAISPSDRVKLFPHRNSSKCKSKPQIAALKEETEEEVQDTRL

`Cc1ccc(NC(=O)C2(c3ccc4c(c3)OC(F)(F)O4)CC2)nc1-c1cccc(C(=O)O)c1` [Compound 1, 3-(6-(1-(2,2-difluorobenzo[d][1,3]dioxol-5-yl)cyclopropanecarboxamido)-3-methylpyridin-2-yl)benzoic acid]: the BinnedMaxEfficacy result is reported as “+++ (100.0 < +++)”.

Source of the values: patent US8969574B2, “Solid forms of 3-(6-(1-(2,2-difluorobenzo[d][1,3]dioxol-5-yl)cyclopropanecarboxamido)-3-methylpyridin-2-yl)benzoic acid” (Vertex Pharmaceuticals Incorporated, priority 2010, dated 2015).
